Laboratory results as given in patent publication US20230123601A1, “PHARMACEUTICAL COMBINATION OF ANTIVIRAL AGENTS TARGETING HBV AND/OR AN IMMUNE MODULATOR FOR TREATMENT OF HBV” (priority 2019, published 2023).

Tested on: HBV
Assay: HBsAg levels in serum of AAV/HBV mice (CLIA)
Type: in vivo, C57BL/6 mice
Set-up: HBsAg levels in serum (Average ± SD): scale not given here
Description: The AAV-HBV mouse model is generated by injecting C57BL/6 mice with recombinant adeno-associated virus harboring a replicable HBV genome (AAV-HBV). The rAAV8-1.3 HBV ayw virus stock was purchased from Beijing FivePlus Molecular Medicine Institute (Beijing, China). The animals (male, aged 4-5 weeks upon arrival) were purchased from SLAC Laboratory Animal Co. Ltd (Shanghai, China), acclimatized in the animal facility for 5-7 days, and then injected with 1×10^11 vector genome of AAV-HBV (diluted in 200 μL of PBS) through the tail vein. Persistence expression of HBV genome can be established after three weeks, with high levels of HBV viral markers including HBV DNA, HBsAg, and HBeAg in mouse serum. With stable HBV viremia and competent immune system of the C57BL/6 mice, the AAV-HBV mouse model was used to evaluate the in vivo anti-HBV efficacy of the compounds. The in-life part of the AAV-HBV study was conducted through contracted service at Covance Pharmaceutical Research and Development (Shanghai) Co. Ltd. (Covance Shanghai) and the post-life analysis using the serum was performed internally at Roche Innovation Center Shanghai (RICS).
Seven days before compound treatment, blood samples were collected for serum preparation (˜15 μL), and based on HBV DNA, HBsAg levels in serum and body weight, the AAV-HBV infected animals were stratified into the different treatment groups.
Saline (Group 01) and anti-HBV ASO of CMP ID NO: 15_1 at 1.5 or 7.5 mg/kg were dosed sub subcutaneously once a week during Day 0-49 on Days 0, 7, 14, 21, 28, 35, 42 and 49. TLR7 agonist of CMP ID NO: VI 100 mg/kg was administered by oral gavage once every other day during Day 0-55 (QOD) or once weekly during Day 0-49 on Days 0, 7, 14, 21, 28, 35, 42 and 49 (QW). The animals were weekly bled via retro-orbital sinus for sample collection throughout the study.
Serum HBsAg levels were determined in the serum of infected AAV-HBV mouse using the HBsAg chemoluminescence immunoassay (CLIA) (Autobio diagnostics Co. Ltd., Zhengzhou, China, Cat. no. CL0310-2), according to the manufacturer's protocol. Briefly, 50 μl of serum was transferred to the antibody coated microtiter plate and 50 μl of enzyme conjugate reagent was added. The plate was incubated for 60 min on a shaker at room temperature before all wells were washed six times with washing buffer using an automatic washer. 25 μl of substrate A and then 25 μl of substrate B was added to each well. The plate was incubated for 10 min at RT before luminescence was measured using an Envision luminescence reader (Perkin Elmer). HBsAg is given in the unit IU/ml; where 1 ng HBsAg=1.14 IU.
To evaluate the combination of the anti-HBV ASO and the TLR7 agonist in an in vivo system, a mouse model of chronic HBV infection was used. In the AAV/HBV mouse model described in the Materials and Method a persistent HBV infection is established resulting in expression of viral markers (HBsAg, HBeAg, HBV DNA) detectable in plasma. The effect on these viral markers upon treatment with the anti-HBV ASO of CMP ID NO: 15_1 (table 2, and FIG. 4) dosed at 1.5 mg/kg or 7.5 mg/kg and the TLR7 agonist of CMP ID NO: VI (table 3) dosed with […] every other day (QOD) or once weekly (QW) in monotherapy or in combination has been evaluated.

How did the “HBsAg levels in serum (Average ± SD)” value (D0, 15_1 1.5 mg/kg weekly, VI 100 mg/kg QOD, or combination of both) turn out when `CC[C@H](OC(C)=O)[C@@H]1C[C@@H](O)[C@H](n2c(=O)sc3cnc(N)nc32)O1` [CMP ID NO: VI, [(1S)-1-[(2S,4R,5R)-5-(5-amino-2-oxo-thiazolo[4,5-d]pyrimidin-3-yl)-4-hydroxy-tetrahydrofuran-2-yl]propyl] acetate] was run?
Its value is 4.14 ± 0.37.

And the “HBsAg levels in serum (Average ± SD)” value (D0, 15_1 1.5 mg/kg weekly, VI 100 mg/kg QW, or combination of both)?
Its value is 4.07 ± 0.44.

What about the “HBsAg levels in serum (Average ± SD)” value (D0, 15_1 7.5 mg/kg weekly, VI 100 mg/kg QOD, or combination of both) of the same compound?
The value was 4.14 ± 0.37.

And the “HBsAg levels in serum (Average ± SD)” value (D0, 15_1 7.5 mg/kg weekly, VI 100 mg/kg QW, or combination of both)?
Its value is 4.07 ± 0.44.

And the “HBsAg levels in serum (Average ± SD)” value (D7, 15_1 1.5 mg/kg weekly, VI 100 mg/kg QOD, or combination of both)?
The value was 3.68 ± 1.03.

And the “HBsAg levels in serum (Average ± SD)” value (D7, 15_1 1.5 mg/kg weekly, VI 100 mg/kg QW, or combination of both)?
Its value is 3.72 ± 0.85.

What about the “HBsAg levels in serum (Average ± SD)” value (D7, 15_1 7.5 mg/kg weekly, VI 100 mg/kg QOD, or combination of both) of the same compound?
Its value is 3.68 ± 1.03.

What about the “HBsAg levels in serum (Average ± SD)” value (D7, 15_1 7.5 mg/kg weekly, VI 100 mg/kg QW, or combination of both) of the same compound?
Its value is 3.72 ± 0.85.

And the “HBsAg levels in serum (Average ± SD)” value (D14, 15_1 1.5 mg/kg weekly, VI 100 mg/kg QOD, or combination of both)?
Its value is 3.11 ± 1.35.

And the “HBsAg levels in serum (Average ± SD)” value (D14, 15_1 1.5 mg/kg weekly, VI 100 mg/kg QW, or combination of both)?
Its value is 3.52 ± 0.96.

What about the “HBsAg levels in serum (Average ± SD)” value (D14, 15_1 7.5 mg/kg weekly, VI 100 mg/kg QOD, or combination of both) of the same compound?
The value was 3.11 ± 1.35.

And the “HBsAg levels in serum (Average ± SD)” value (D14, 15_1 7.5 mg/kg weekly, VI 100 mg/kg QW, or combination of both)?
Its value is 3.52 ± 0.96.

And the “HBsAg levels in serum (Average ± SD)” value (D21, 15_1 1.5 mg/kg weekly, VI 100 mg/kg QOD, or combination of both)?
Its value is 2.62 ± 1.41.

What about the “HBsAg levels in serum (Average ± SD)” value (D21, 15_1 1.5 mg/kg weekly, VI 100 mg/kg QW, or combination of both) of the same compound?
Its value is 3.07 ± 1.22.

What about the “HBsAg levels in serum (Average ± SD)” value (D21, 15_1 7.5 mg/kg weekly, VI 100 mg/kg QOD, or combination of both) of the same compound?
The value was 2.62 ± 1.41.

And the “HBsAg levels in serum (Average ± SD)” value (D21, 15_1 7.5 mg/kg weekly, VI 100 mg/kg QW, or combination of both)?
The value was 3.07 ± 1.22.

What about the “HBsAg levels in serum (Average ± SD)” value (D28, 15_1 1.5 mg/kg weekly, VI 100 mg/kg QOD, or combination of both) of the same compound?
Its value is 2.21 ± 1.28.

And the “HBsAg levels in serum (Average ± SD)” value (D28, 15_1 1.5 mg/kg weekly, VI 100 mg/kg QW, or combination of both)?
The value was 2.65 ± 1.37.

And the “HBsAg levels in serum (Average ± SD)” value (D28, 15_1 7.5 mg/kg weekly, VI 100 mg/kg QOD, or combination of both)?
The value was 2.21 ± 1.28.

And the “HBsAg levels in serum (Average ± SD)” value (D28, 15_1 7.5 mg/kg weekly, VI 100 mg/kg QW, or combination of both)?
Its value is 2.65 ± 1.37.

What about the “HBsAg levels in serum (Average ± SD)” value (D35, 15_1 1.5 mg/kg weekly, VI 100 mg/kg QOD, or combination of both) of the same compound?
The value was 1.78 ± 1.18.

What about the “HBsAg levels in serum (Average ± SD)” value (D35, 15_1 1.5 mg/kg weekly, VI 100 mg/kg QW, or combination of both) of the same compound?
Its value is 2.49 ± 1.29.

What about the “HBsAg levels in serum (Average ± SD)” value (D35, 15_1 7.5 mg/kg weekly, VI 100 mg/kg QOD, or combination of both) of the same compound?
The value was 1.78 ± 1.18.

And the “HBsAg levels in serum (Average ± SD)” value (D35, 15_1 7.5 mg/kg weekly, VI 100 mg/kg QW, or combination of both)?
The value was 2.49 ± 1.29.

What about the “HBsAg levels in serum (Average ± SD)” value (D42, 15_1 1.5 mg/kg weekly, VI 100 mg/kg QOD, or combination of both) of the same compound?
Its value is 1.57 ± 0.97.

And the “HBsAg levels in serum (Average ± SD)” value (D42, 15_1 1.5 mg/kg weekly, VI 100 mg/kg QW, or combination of both)?
Its value is 2.28 ± 1.28.

What about the “HBsAg levels in serum (Average ± SD)” value (D42, 15_1 7.5 mg/kg weekly, VI 100 mg/kg QOD, or combination of both) of the same compound?
The value was 1.57 ± 0.97.

And the “HBsAg levels in serum (Average ± SD)” value (D42, 15_1 7.5 mg/kg weekly, VI 100 mg/kg QW, or combination of both)?
Its value is 2.28 ± 1.28.

What about the “HBsAg levels in serum (Average ± SD)” value (D49, 15_1 1.5 mg/kg weekly, VI 100 mg/kg QOD, or combination of both) of the same compound?
Its value is 1.63 ± 0.86.

And the “HBsAg levels in serum (Average ± SD)” value (D49, 15_1 1.5 mg/kg weekly, VI 100 mg/kg QW, or combination of both)?
The value was 1.9 ± 1.07.

And the “HBsAg levels in serum (Average ± SD)” value (D49, 15_1 7.5 mg/kg weekly, VI 100 mg/kg QOD, or combination of both)?
Its value is 1.63 ± 0.86.

What about the “HBsAg levels in serum (Average ± SD)” value (D49, 15_1 7.5 mg/kg weekly, VI 100 mg/kg QW, or combination of both) of the same compound?
Its value is 1.90 ± 1.07.

What about the “HBsAg levels in serum (Average ± SD)” value (D56, 15_1 1.5 mg/kg weekly, VI 100 mg/kg QOD, or combination of both) of the same compound?
The value was 1.56 ± 0.77.

What about the “HBsAg levels in serum (Average ± SD)” value (D56, 15_1 1.5 mg/kg weekly, VI 100 mg/kg QW, or combination of both) of the same compound?
The value was 2.13 ± 1.

What about the “HBsAg levels in serum (Average ± SD)” value (D56, 15_1 7.5 mg/kg weekly, VI 100 mg/kg QOD, or combination of both) of the same compound?
The value was 1.56 ± 0.77.
